Assay results as given in patent US20220040212A1, “ORAL REHYDRATION COMPOSITION WITH OLIGOSACCHARIDES” (ABBOTT LABORATORIES, priority 2013, published 2022).
Where “and” joins values, the source holds several entries; their conditions need not be identical. Equal values may be shown once.

Columns and labels:
[1] = Stability of 2′-FL, LNnT and 6′-SL in an ORC over time (0 D to 14 weeks); assay type: physicochemical; details: for LNnT / Lactose / % Remaining * (LNnT) / % Remaining ** (LNnT): LNnT ORC pH 3.5; for % Remaining * (LNnT): vs target fortification
Protocol: Another study was performed to determine the stability of 2′-FL, LNnT, and 6′-SL in an ORC over time (e.g., 1 week, 3 weeks, 6 weeks, and 14 weeks).
Sample Preparation: A master batch with a pH of 4.25 is sub-divided. The oligosaccharides are added to the respective ORC in an amount of 0.2 g/L for 2′-FL and 6′-SL, LNnT was fortified in an amount of 0.256 g/L. The pH was then adjusted from 4.25 to 3.5 by addition of citric acid. Prior to sterilization, samples are collected to evaluate oligosaccharide levels. The formulas were then delivered into 1 L bottles and subjected to heat sterilization and allowed to cool to room temperature.
The data on day 0 was collected in duplicate for samples prior to sterilization (unsterile) and after sterilization (sterile), thereafter the data was collected only on the sterilized samples. […] The slight fluctuation in lactose and lactulose levels are likely due to method variability.
The data on day 0 was collected in duplicate for samples prior to sterilization (unsterile) and after sterilization (sterile), thereafter the data was collected only on the sterilized samples.
The data on day 0 was collected in duplicate for samples prior to sterilization (unsterile) and after sterilization (sterile), thereafter the data was collected only on the sterilized samples. […] At 14 weeks, the concentration was 2.3% of the target fortification amount.

[2] = Stability of oligosaccharides in oral rehydration solution, before/after retort sterilization and 3 weeks after (HPAEC); assay type: physicochemical; details: for LNnT / Lactose / % Theoretical LNnT: LNnT sample, pH 3.5; for % Theoretical LNnT: fortification 0.256 g/L
Protocol: A study was conducted to determine the relative stabilities of GOS, FOS, 2′-FL, 6′-SL, and LNnT in an oral rehydration solution. A master batch of product was prepared (shown in Table 1), the pH adjusted to approx. 4.25, and subsequently divided into five sub-batches.
Oligosaccharide ingredients were added to each of the sub-batches in amounts shown Table 2, and the pH of each sub-batch was subsequently adjusted to 3.5 with citric acid. The solutions were filled into 1 L plastic bottles, capped and retorted with a cook temperature of 217° F. for 25 minutes. Duplicate samples were collected immediately prior to sterilization and within 24 h after sterilization. Prior to sample analysis, the unsterile samples were stored at refrigerated temperature (˜40° F.) and the sterilized samples were held ambient temperature.
Samples were analyzed by HPAEC using a Dionex ICS3000 Ion Chromatography System (Thermo Scientific, Inc., Sunnyvale, Calif.) equipped with a pulsed amperometric detector comprised of a AgCl reference electrode, gold working electrode, and CarboPac PA1 guard (4×50 mm) and analytical columns (4×250 mm). Mobile phases were degassed and pressurized with 3 to 5 psi helium, and oligosaccharides eluted from the columns using various gradients detailed in Tables 3-5 at a flow rate of 1.0 mL/min. The column and detector were held at 20±2° C. Oligosaccharide identification and concentration were determined from quadratic fit (not forced through the origin) standard curves. […]
2′-FL fortification was calculated to be 0.2 g/L. Testing samples were reconstituted at 20 mL to 100 ml, with water, and then filtered using a 0.2 μm PES membrane syringe filter.
LNnT fortification was calculated to be 0.256 g/L. Testing samples were reconstituted at 20 mL to 100 ml, with water, and then filtered using a 0.2 μm PES membrane syringe filter.
6′-SL fortification was calculated to be 0.2 g/L. Testing samples were reconstituted at 20 mL to 100 mL with water, and then filtered using a 0.2 μm PES membrane syringe filter.

[3] = 3-week after sterilization, average
[4] = 3-week after sterilization, samples 1, 2
[5] = sterile (after retort 217° F. 25 min), samples 1, 2
[6] = sterile (after retort), average

LNnT ([1]; 0 D, sterile, average): 261 mg/L
Lactose ([1]; 0 D, sterile, average): 26.8 mg/L
% Remaining * (LNnT) ([1]; 0 D, sterile, average): 102%
LNnT ([1]; 0 D, sterile, samples 1, 2): 261 mg/L and 261.1 mg/L
Lactose ([1]; 0 D, sterile, samples 1, 2): 26.34 mg/L and 27.26 mg/L
% Remaining * (LNnT) ([1]; 0 D, sterile, samples 1, 2): 102.1%
LNnT ([1]; 0 D, unsterile, average): 258 mg/L
Lactose ([1]; 0 D, unsterile, average): 25.6 mg/L
% Remaining * (LNnT) ([1]; 0 D, unsterile, average): 101%
LNnT ([1]; 0 D, unsterile, samples 1, 2): 257.6 mg/L and 259.4 mg/L
Lactose ([1]; 0 D, unsterile, samples 1, 2): 25.78 mg/L and 25.46 mg/L
% Remaining * (LNnT) ([1]; 0 D, unsterile, samples 1, 2): 100.7% and 101.4%
% Remaining ** (LNnT) ([1]; 3 WK, sterile, average): 105%
LNnT ([1]; 3 WK, sterile, average): 269 mg/L
Lactose ([1]; 3 WK, sterile, average): 28.10 mg/L
% Remaining ** (LNnT) ([1]; 3 WK, sterile, samples 1, 2): 104.2% and 106%
LNnT ([1]; 3 WK, sterile, samples 1, 2): 266.5 mg/L and 271.0 mg/L
Lactose ([1]; 3 WK, sterile, samples 1, 2): 28.03 mg/L and 28.19 mg/L
% Remaining ** (LNnT) ([1]; 6 WK, sterile, average): 104%
LNnT ([1]; 6 WK, sterile, average): 267 mg/L
Lactose ([1]; 6 WK, sterile, average): 29.7 mg/L
% Remaining ** (LNnT) ([1]; 6 WK, sterile, samples 1, 2): 103.9% and 104.9%
LNnT ([1]; 6 WK, sterile, samples 1, 2): 265.8 mg/L and 268.4 mg/L
Lactose ([1]; 6 WK, sterile, samples 1, 2): 30.89 mg/L and 28.6 mg/L
% Remaining ** (LNnT) ([1]; 14 WK, sterile, average): 105%
LNnT ([1]; 14 WK, sterile, average): 269 mg/L
Lactose ([1]; 14 WK, sterile, average): 28 mg/L
% Remaining ** (LNnT) ([1]; 14 WK, sterile, samples 1, 2): 106.6% and 103.4%
LNnT ([1]; 14 WK, sterile, samples 1, 2): 272.7 mg/L and 264.3 mg/L
Lactose ([1]; 14 WK, sterile, samples 1, 2): 27.94 mg/L and 28.14 mg/L
Change of oligosaccharide level over the course of the study (in words) ([1]; ORC pH 3.5, heat sterilized, 0 D to 14 weeks): No substantial loss
Stability in the exemplary formulations (in words) [2]: enhanced stability
LNnT [2, 3]: 269 mg/L
Lactose [2, 3]: 28.1 mg/L
% Theoretical LNnT [2, 3]: 105%
LNnT [2, 4]: 266.5 mg/L and 271.0 mg/L
Lactose [2, 4]: 28.03 mg/L and 28.19 mg/L
% Theoretical LNnT [2, 4]: 104.2% and 106%
LNnT [2, 5]: 261 mg/L and 261.1 mg/L
Lactose [2, 5]: 26.34 mg/L and 27.26 mg/L
LNnT [2, 6]: 261 mg/L
Lactose [2, 6]: 26.8 mg/L
% Theoretical LNnT [2, 6]: 102%
% Theoretical LNnT ([2]; sterile (after retort), samples 1, 2): 102.1%
LNnT ([2]; unsterile, average): 258 mg/L
Lactose ([2]; unsterile, average): 25.6 mg/L
% Theoretical LNnT ([2]; unsterile, average): 101%
LNnT ([2]; unsterile, samples 1, 2): 257.6 mg/L and 259.4 mg/L
Lactose ([2]; unsterile, samples 1, 2): 25.78 mg/L and 25.46 mg/L
% Theoretical LNnT ([2]; unsterile, samples 1, 2): 100.7% and 101.4%
Further loss 3-weeks after sterilization, relative to sterilized sample (in words) ([2]; oral rehydration solution pH 3.5, 3-weeks after sterilization): no further loss
Loss of oligosaccharide during sterilization (in words) ([2]; oral rehydration solution pH 3.5, retort 217° F. 25 min): no decrease
SMILES: CC(=O)N[C@H]1[C@H](O[C@H]2[C@@H](O)[C@@H](CO)O[C@@H](O[C@H]3[C@H](O)[C@@H](O)C(O)O[C@@H]3CO)[C@@H]2O)O[C@H](CO)[C@@H](O[C@@H]2O[C@H](CO)[C@H](O)[C@H](O)[C@H]2O)[C@@H]1O (mixture of isomers) [LNnT, lacto-N-neotetraose]
